The values below come from patent US8252940B2, “5-substituted-2-imino-thiazolidinone compounds and their use as inhibitors of bacterial infection” (University of Washington, priority 2008, dated 2012).

In this assay the test system is type III secretion in S. typhimurium. Nature of the assay: microbe, parasite or virus in culture. Format: cell-based, Salmonella enterica serovar Typhimurium. As to conditions: for % Secretion: type III secretion in S. typhimurium, SipA secretion by Western blot; for inhibition at 3.3 µM / inhibition at 33 µM / inhibition at 330 µM: read-out: % inhibition of SipA secretion. In general terms: Immunoblotting shows a protein as a band on a membrane.

The mark [1] stands for this setting: Salmonella enterica, TYPHIMURIUM

In the case of `COc1cc(/C=C2\S/C(=N\c3ccccc3)N([C@@H](CCCN)C(=O)N[C@@H](C)C(N)=O)C2=O)cc(OC)c1O` [compound 86], the “% inhibition of SipA secretion” value runs as follows: (3.3 μM, Western blot) 19%; (33 μM, Western blot) 46%; (330 μM, Western blot) 100%.

In the case of `O=C1CS/C(=N\c2ccccc2)N1c1ccccc1` [Compound 8], the “% Secretion” value amounted to 62 ± 3%.

As for `COc1cc(/C=C2\SC(=Nc3ccccc3)N([C@@H](CCCN)C(=O)N[C@@H](CC3CNc4ccccc43)C(N)=O)C2=O)cc(OC)c1O` (stereo partly drawn) [compound 90, (S)-5-amino-N-((S)-1-amino-3-(indolin-3-yl)-1-oxopropan-2-yl)-2-((5Z)-5-(4-hydroxy-3,5-dimethoxybenzylidene)-4-oxo-2-(phenylimino)thiazolidin-3-yl)pentanamide], under setting [1], the inhibition (as a rule, the drop in the measured response relative to a control, in per cent) at 3.3 µM amounted to 20%; the inhibition at 33 µM worked out at 22%; the inhibition at 330 µM was found to be 100%.

As for `COc1cc(/C=C2\S/C(=N\c3ccccc3)N([C@@H](C)C(=O)N[C@@H](CCCNC(=N)N)C(N)=O)C2=O)cc(OC)c1O` [compound 56, (S)-5-Guanidino-2-((S)-2-((2Z,5Z)-5-(4-hydroxy-3,5-dimethoxybenzylidene)-4-oxo-2-(phenylimino)thiazolidin-3-yl)propanamido)pentanamide], under setting [1], the inhibition at 33 µM turned out to be 1% and the inhibition at 330 µM was 100%.

In the case of `COc1cc(/C=C2\S/C(=N\c3ccccc3)N(C(C(=O)N[C@@H](Cc3ccc(O)cc3)C(N)=O)C(C)C)C2=O)cc(OC)c1O` (single isomer, unassigned) [compound 69], under setting [1], the inhibition at 33 µM came out at 32% and the inhibition at 330 µM was determined as 97%.

Take `COc1cc(/C=C2\S/C(=N\c3ccccc3)N([C@@H](Cc3ccc(-c4ccccc4)cc3)C(=O)N[C@@H](CCCNC(=N)N)C(N)=O)C2=O)cc(OC)c1O` [compound 96]: the “% inhibition of SipA secretion” value (3.3 µM) is 100 (330) 95 (33) 54 (3.3) %, the “% inhibition of SipA secretion” value (33 µM) is 100 (330) 95 (33) 54 (3.3) % and the “% inhibition of SipA secretion” value (330 µM) is reported as 100 (330) 95 (33) 54 (3.3) %.

`COc1cc(/C=C2\S/C(=N\c3ccccc3)N(CCCC(=O)OC(C)(C)C)C2=O)cc(OC)c1O` [compound 60, t-Butyl-4-((2Z,5Z)-5-(4-hydroxy-3,5-dimethoxybenzylidene)-4-oxo-2-(phenylimino)thiazolidin-3-yl)butanoate]: under setting [1], the inhibition at 3.3 µM stood at 35% and the inhibition at 330 µM amounted to 90%.

`COc1cc(/C=C2\S/C(=N\c3ccccc3)N(C(Cc3ccncc3)C(=O)N[C@@H](CCCNC(=N)N)C(N)=O)C2=O)cc(OC)c1O` (stereo partly drawn) [compound 95, (S)-5-guanidino-2-(2-((2Z,5Z)-5-(4-hydroxy-3,5-dimethoxybenzylidene)-4-oxo-2-(phenylimino)thiazolidin-3-yl)-3-(pyridin-4-yl)propanamido)pentanamide]: under setting [1], the inhibition at 33 µM came out at 8% and the inhibition at 330 µM is 89%.

As for `COc1cc(/C=C2\S/C(=N\c3ccccc3)N([C@@H](C)C(=O)N[C@@H](Cc3ccc(O)cc3)C(N)=O)C2=O)cc(OC)c1O` [compound 50, (S)-N-((S)-1-amino-3-(4-hydroxyphenyl)-1-oxopropan-2-yl)-2-((2Z,5Z)-5-(4-hydroxy-3,5-dimethoxybenzylidene)-4-oxo-2-(phenylimino)thiazolidin-3-yl)propanamide], the inhibition at 330 µM under setting [1] came out at 90%.

Regarding `COc1cc(/C=C2\SC(=N)NC2=O)cc(OC)c1O` [Compound 6], the “% Secretion” value is 64 ± 4%.

As to `COc1cc(/C=C2\S/C(=N\c3ccccc3)N([C@@H](CCCNC(=N)N)C(=O)N[C@@H](C)C(N)=O)C2=O)cc(OC)c1O` [compound 87, (S)-N-((S)-1-amino-1-oxopropan-2-yl)-5-guanidino-2-((2Z,5Z)-5-(4-hydroxy-3,5-dimethoxybenzylidene)-4-oxo-2-(phenylimino)thiazolidin-3-yl)pentanamide], under setting [1], the inhibition at 3.3 µM was found to be 0%, the inhibition at 33 µM amounted to 38% and the inhibition at 330 µM is 100%.

Take `COc1cc(/C=C2\S/C(=N\c3ccccc3)N([C@@H](CCCN)C(=O)N[C@@H](Cc3ccc(-c4ccccc4)cc3)C(N)=O)C2=O)cc(OC)c1O` [compound 91]: the “% inhibition of SipA secretion” value is, setting by setting: (3.3 µM) 100 (330) 66 (33) 3 (3.3) %; (33 µM) 100 (330) 66 (33) 3 (3.3) %; (330 µM) 100 (330) 66 (33) 3 (3.3) %.

Regarding `COc1cc(/C=C2\S/C(=N\c3ccccc3)N([C@@H](CC3CNc4ccccc43)C(=O)N[C@@H](CCCNC(=N)N)C(N)=O)C2=O)cc(OC)c1O` (stereo partly shown) [compound 98], the “% inhibition of SipA secretion” value (3.3 μM, Western blot) was 2%; the “% inhibition of SipA secretion” value (33 μM, Western blot) was determined as 12%; the “% inhibition of SipA secretion” value (330 μM, Western blot) was found to be 100%.

Turning to `COc1cc(/C=C2\S/C(=N\c3ccccc3)N([C@@H](C)C(=O)N[C@@H](C)C(N)=O)C2=O)cc(OC)c1O` [compound 49, (S)-N-((S)-1-amino-1-oxopropan-2-yl)-2-((2Z,5Z)-5-(4-hydroxy-3,5-dimethoxybenzylidene)-4-oxo-2-(phenylimino)thiazolidin-3-yl)propanamide], under setting [1], the inhibition at 33 µM was 26% and the inhibition at 330 µM amounted to 94%.

Take `COc1cc(/C=C2\S/C(=N\c3ccccc3)N([C@H](C)C(=O)N[C@@H](CCCN)C(N)=O)C2=O)cc(OC)c1O` [compound 84, (S)-5-amino-2-((R)-2-((2Z,5Z)-5-(4-hydroxy-3,5-dimethoxybenzylidene)-4-oxo-2-(phenylimino)thiazolidin-3-yl)propanamido)pentanamide]: under setting [1], the inhibition at 3.3 µM turned out to be 5% and the inhibition at 330 µM amounted to 99%.

Take `COc1cc(/C=C2\S/C(=N\c3ccccc3)N(C(CCCNC(=N)N)C(=O)N3Cc4ccccc4C[C@H]3C(N)=O)C2=O)cc(OC)c1O` (stereo partly drawn) [compound 88, (S)-2-(5-guanidino-2-((2Z,5Z)-5-(4-hydroxy-3,5-dimethoxybenzylidene)-4-oxo-2-(phenylimino)thiazolidin-3-yl)pentanoyl)-1,2,3,4-tetrahydroisoquinoline-3-carboxamide]: under setting [1], the inhibition at 33 µM came to 0% and the inhibition at 330 µM is 100%.

Consider `COc1cc(/C=C2\S/C(=N\c3ccccc3)N(CCCCCCN)C2=O)cc(OC)c1O` [compound 45, (2Z,5Z)-3-(6-aminohexyl)-5-(4-hydroxy-3,5-dimethoxybenzylidene)-2-(phenylimino)-thiazolidin-4-one], for which, under setting [1], the inhibition at 3.3 µM stood at 12%, the inhibition at 33 µM was 42% and the inhibition at 330 µM turned out to be 95%.

Regarding `COc1cc(/C=C2\S/C(=N\c3ccccc3)N([C@@H](C)C(=O)N[C@@H](CCCN)C(N)=O)C2=O)cc(OC)c1O` [compound 54, (S)-5-amino-2-((S)-2-((2Z,5Z)-5-(4-hydroxy-3,5-dimethoxybenzylidene)-4-oxo-2-(phenylimino)thiazolidin-3-yl)propanamido)pentanamide], under setting [1], the inhibition at 330 µM worked out at 94%.

As for `COc1cc(/C=C2\S/C(=N\c3ccccc3)N(CC(=O)O)C2=O)cc(OC)c1O` [compound 57, 2-((2Z,5Z)-5-(4-hydroxy-3,5-dimethoxybenzylidene)-4-oxo-2-(phenylimino)thiazolidin-3-yl)acetic acid], under setting [1], the inhibition at 3.3 µM worked out at 51% and the inhibition at 330 µM worked out at 100%.

Consider `COc1cc(/C=C2\S/C(=N\c3ccccc3)N([C@H](C)C(=O)N[C@@H](CCCNC(=N)N)C(N)=O)C2=O)cc(OC)c1O` [compound 85, (S)-5-guanidino-2-((R)-2-((2Z,5Z)-5-(4-hydroxy-3,5-dimethoxybenzylidene)-4-oxo-2-(phenylimino)thiazolidin-3-yl)propanamido)pentanamide], for which, under setting [1], the inhibition at 33 µM was 31% and the inhibition at 330 µM is 99%.

On to `COc1cc(/C=C2\S/C(=N\c3ccccc3)N([C@@H](C)C(=O)N[C@@H](CCCNC(=N)N)C(N)=O)C2=O)cc(OC)c1O` [Compound 2], for which the “% Secretion” value is 0 ± 0%. Further, the “SipA detected in the supernate” value (3.8 μM, Western blot) is listed as “minimal SipA was detected”. The inhibition at 38 µM (Salmonella enterica, TYPHIMURIUM, read-out: inhibition of detectable secreted SipA) stood at 100%.

For the molecule `COc1cc(CC2SC(=N)NC2=O)cc(OC)c1O` (stereo not shown) [Compound 9], the “% Secretion” value amounted to 72 ± 0%.

On to `COc1cc(/C=C2\S/C(=N\c3ccccc3)NC2=O)cc(OC)c1O` [Compound 4], for which the “% Secretion” value was 9 ± 6%.

For `COc1ccc(N2C(=O)/C(=C/c3cc(OC)c(O)c(OC)c3)S/C2=N\c2ccccc2)cc1` [Compound 3], the “% Secretion” value is listed as 0 ± 0%.

Consider `O=C1/C(=C/c2ccccc2)S/C(=N\c2ccccc2)N1c1ccccc1` [Compound 7], for which the “% Secretion” value worked out at 90 ± 2%.

`COc1cc(/C=C2\S/C(=N\c3ccccc3)N(CCCC(=O)O)C2=O)cc(OC)c1O` [compound 61, 4-((2Z,5Z)-5-(4-hydroxy-3,5-dimethoxybenzylidene)-4-oxo-2-(phenylimino)thiazolidin-3-yl)butanoic acid]: under setting [1], the inhibition at 3.3 µM turned out to be 70% and the inhibition at 330 µM was 74%.

Take `COc1cc(/C=C2\S/C(=N\c3ccccc3)N(C(CCCNC(=N)N)C(=O)N3CSC[C@H]3C(N)=O)C2=O)cc(OC)c1O` (stereo partly drawn) [compound 94, (R)-3-(5-guanidino-2-((2Z,5Z)-5-(4-hydroxy-3,5-dimethoxybenzylidene)-4-oxo-2-(phenylimino)thiazolidin-3-yl)pentanoyl)thiazolidine-4-carboxamide]: under setting [1], the inhibition at 3.3 µM was 3%, the inhibition at 33 µM stood at 7% and the inhibition at 330 µM was found to be 89%.

Regarding `COc1cc(/C=C2\S/C(=N\c3ccc(CN)cc3)N(c3ccccc3)C2=O)cc(OC)c1O` [compound 47, (2Z,5Z)-3-(4-(aminomethyl)phenylimino)-5-(4-hydroxy-3,5-dimethoxybenzyldene)-2-phenylthiazolidin-4-one], the “% inhibition of SipA secretion” value runs as follows: (3.3 μM, Western blot) 8%; (33 μM, Western blot) 35%; (330 μM, Western blot) 100%.

Consider `COc1cc(/C=C2\S/C(=N\c3ccc(CN)cc3)N(c3ccccc3)C2=O)cc(OC)c1O` [compound 46, (2Z,5Z)-2-(4-(aminomethyl)phenylimino)-5-(4-hydroxy-3,5-dimethoxybenzyldene)-3-phenylthiazolidin-4-one], for which the “% inhibition of SipA secretion” value runs as follows: (3.3 μM, Western blot) 7%; (33 μM, Western blot) 16%; (330 μM, Western blot) 85%.
